Source: BindingDB's records for doi:10.1073/pnas.0609412103 (Genomics Institute of The Novartis Research Foundation, 2007)

Assay: Inhibition of Tel-fused RON kinase-mediated mouse BaF3 cell proliferation

- IC50: 1.63 µM
SMILES: COc1cc(N2CCC(N3CCN(C)CC3)CC2)ccc1Nc1ncc(Cl)c(Nc2ccccc2S(=O)(=O)C(C)C)n1 [TAE684]
